The record followed here is patent US11401243B2, “Quinoline derived small molecule inhibitors of nicotinamide N-methyltransferase (NNMT) and uses thereof” (priority 2017, dated 2022).

Data set [1] addresses recombinant human NAMPT enzyme (Homo sapiens, UniProt P43490). Description: NAMPT activity assay (fluorometric). Format: biochemical.
The subject of data set [2] is Caco-2 cells. Description: Bi-directional permeability assay with Caco-2 cells. The conditions noted are these: Caco-2; listed as 5-amino-1MQ. A general note: Caco-2 cells form a polarised layer with tight junctions and transporters.
Test in data set [3]: as above
The conditions noted are these: human.

For data set [4], the target named is T1, recombinant human SIRT-1 (NAD+-dependent) enzyme (Homo sapiens, UniProt Q96EB6).
T1 construct: Reaction Biology Corporation (ran the assay)
T1 sequence (Q96EB6 1-747): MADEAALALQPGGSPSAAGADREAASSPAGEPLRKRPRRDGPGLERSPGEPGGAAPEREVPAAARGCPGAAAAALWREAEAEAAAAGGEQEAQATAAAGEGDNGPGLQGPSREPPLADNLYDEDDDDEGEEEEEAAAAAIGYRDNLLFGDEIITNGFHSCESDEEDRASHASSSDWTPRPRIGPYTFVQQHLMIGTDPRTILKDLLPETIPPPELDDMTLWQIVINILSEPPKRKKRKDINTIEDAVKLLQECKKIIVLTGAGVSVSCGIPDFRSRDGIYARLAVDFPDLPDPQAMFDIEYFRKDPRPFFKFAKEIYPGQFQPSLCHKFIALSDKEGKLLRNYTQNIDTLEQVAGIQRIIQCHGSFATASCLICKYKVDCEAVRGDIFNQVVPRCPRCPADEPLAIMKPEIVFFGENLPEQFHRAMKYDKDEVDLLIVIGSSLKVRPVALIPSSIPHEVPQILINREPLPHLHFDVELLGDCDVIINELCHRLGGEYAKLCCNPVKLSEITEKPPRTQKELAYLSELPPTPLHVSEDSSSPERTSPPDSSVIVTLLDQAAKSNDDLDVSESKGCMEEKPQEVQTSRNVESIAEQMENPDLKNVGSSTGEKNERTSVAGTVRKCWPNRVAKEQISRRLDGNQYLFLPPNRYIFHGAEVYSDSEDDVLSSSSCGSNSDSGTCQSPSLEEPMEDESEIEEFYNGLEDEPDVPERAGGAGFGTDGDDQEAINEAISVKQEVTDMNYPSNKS
Description: SIRT-1 activity assay (fluorometric). In kind it is biochemical.

By IC50 is commonly meant the point on the concentration scale where inhibition reaches its midpoint. As a reminder, the efflux ratio is the permeability from basolateral to apical divided by that in the opposite direction, in the common usage. As a reminder, the Papp A→B is how fast a substance crosses the layer from the apical side. Lower therefore signals slow passage. By Papp B→A is commonly meant how fast a substance crosses the layer from the basolateral side.

Molecules are shown by their SMILES. “Also recorded” adds a separate entry of the source.

Sequence of recombinant human NAMPT enzyme (P43490 whole entry): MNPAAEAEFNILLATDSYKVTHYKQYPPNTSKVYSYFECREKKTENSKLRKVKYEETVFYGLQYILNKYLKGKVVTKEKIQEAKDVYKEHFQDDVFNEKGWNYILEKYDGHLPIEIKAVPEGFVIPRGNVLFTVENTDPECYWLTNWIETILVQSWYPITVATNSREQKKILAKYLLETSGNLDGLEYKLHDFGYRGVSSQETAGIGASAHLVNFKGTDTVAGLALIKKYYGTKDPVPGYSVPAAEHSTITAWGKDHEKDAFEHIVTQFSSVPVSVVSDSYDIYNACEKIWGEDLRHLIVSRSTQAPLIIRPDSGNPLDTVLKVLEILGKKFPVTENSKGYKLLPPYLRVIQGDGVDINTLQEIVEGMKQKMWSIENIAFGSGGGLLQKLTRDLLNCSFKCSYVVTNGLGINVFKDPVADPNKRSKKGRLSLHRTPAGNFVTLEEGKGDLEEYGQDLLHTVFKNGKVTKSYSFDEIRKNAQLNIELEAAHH

On to `C[n+]1cccc2c(N)cccc21` [1j, 5-amino-1-methylquinolin-1-ium iodide], for which, in data set [1] (concentrations above 100 μM could not be tested (assay interference), read-out: IC50, Nicotinamide phosphoribosyl transferase), the IC50 was greater than 100 µM. The “inhibition of NAMPT (in words)” value in data set [1] (up to 100 μM) is on record as “did not inhibit”. In addition, in data set [2], the “Classification (active transport / efflux)” value is on record as “no detectable efflux; also recorded: High permeability”. Besides, the efflux ratio at 2 h, 10 μM in data set [3] (Caco-2) was 1.33. In data set [3] (Caco-2, pH 7.4), the Papp A→B at 2 h, 10 μM turned out to be 34.2 ×10⁻⁶ cm/s and the Papp B→A at 2 h, 10 μM stood at 45.2 ×10⁻⁶ cm/s. Besides, the “inhibition of SIRT1 (in words)” value in data set [4] (10 nM-300 μM) is given as “did not inhibit”. The “SIRT1 activity (in words)” value in data set [4] (600 μM) was “minor reduction in SIRT1 activity”.
